The values below come from patent publication US20250011738A1, “HEAT TOLERANT ALKALINE PHOSPHATASE” (BiomEdit, LLC, priority 2021, published 2025).

Where two headings read alike, the source gives them in different places.

As a reminder, the Km is the concentration of substrate that gives half-maximal velocity.

For the experiment, the target named is T1, Paenibacillus lentus alkaline phosphatase AP1 heat tolerant mutant APHT (designated "HT"), 16 amino acid changes from AP1, SEQ ID NO: 1 (Paenibacillus lentus, UniProt A0A3Q8S6G4, A163G/A247P/A302M/D102S/D304A/F110I/G290A/K198N/K66I/L136H/S105A/S168N/S338G/S535E/T223N/V100I/Y117N).
T1 sequence (A0A3Q8S6G4 34-572 K66I/V100I/D102S/S105A/F110I/Y117N/L136H/A163G/S168N/K198N/T223N/A247P/G290A/A302M/D304A/S338G/S535E): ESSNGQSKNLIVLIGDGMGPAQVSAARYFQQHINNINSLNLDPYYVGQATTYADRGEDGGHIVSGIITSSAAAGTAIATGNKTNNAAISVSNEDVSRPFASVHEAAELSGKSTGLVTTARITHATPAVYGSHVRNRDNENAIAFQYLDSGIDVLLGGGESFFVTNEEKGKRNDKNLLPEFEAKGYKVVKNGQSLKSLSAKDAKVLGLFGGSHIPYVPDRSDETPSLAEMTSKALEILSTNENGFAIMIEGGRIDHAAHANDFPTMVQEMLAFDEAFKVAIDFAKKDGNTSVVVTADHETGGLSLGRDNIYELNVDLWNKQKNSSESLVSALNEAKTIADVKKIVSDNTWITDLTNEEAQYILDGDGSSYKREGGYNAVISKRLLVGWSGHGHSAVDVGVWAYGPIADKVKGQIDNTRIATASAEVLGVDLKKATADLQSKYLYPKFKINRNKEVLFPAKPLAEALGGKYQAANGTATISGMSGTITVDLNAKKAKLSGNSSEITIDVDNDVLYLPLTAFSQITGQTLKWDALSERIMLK
Format: biochemical. On the procedure:
FIG. 7 presents effect of pH on (A)Vmax (IU/mg) and (B) KM (μM) activity of AP1 (designated “Native”) and APHT (designated “HT”). Assays were performed at 40° C. with p-NPP as substrate in the concentration range 0-5 mM. The enzyme concentration was 2.5 μg/mL for the pH 8 and 0.4 mg/mL for pH 9-13).
FIG. 8 presents effect of pH on (A)Vmax (IU/mg) and (B) KM (μM) activity of AP1 (designated “Native”) and APHT (designated “HT”). Assays were performed at 50° C. with p-NPP as substrate in the concentration range 0-5 mM. The enzyme concentration was 2.5 μg/mL for the pH 8 and 0.4 mg/mL for pH 9-13).
To further improve the thermal stability, a set of synthetic alkaline phosphatase genes where each amino acid was mutated to other possibilities one at a time was constructed and evaluated. […] In FIG. 5A, the AP1 with a serine mutation is designated as “AP Native” and is depicted in sequence with a leader sequence […] (SEQ ID NO:13). The AP1 with leader sequence […] is provided in SEQ ID NO:14). The APHT polypeptide with leader sequence […] is provided in SEQ ID NO:15). In FIG. 5B, the AP1 with a serine mutation and without any leader sequence or leader peptide amino acids (SEQ ID NO:4) is aligned and compared with the APHT without any leader sequence or leader peptide amino acids (SEQ ID NO:1). The 16 amino acid changes in APHT are evident. The APHT amino acid sequence (excluding and without any leader sequence and starting with amino acids ESSN) is 97% identical to the sequence of AP1 (excluding and without any leader sequence and starting with amino acids ESSN).
The APHT sequence (SEQ ID NO: 1) is provided below with the amino acid mutations versus the AP1 sequence underlined and in bold.
• 1 M DEA Buffer pH 10. Dissolve 10.5 g of diethanolamine in to 100 ml of water. The pH adjust with 1 M hydrochloric acid or 1 M NaOH. Filter sterilize and store at 4 C. • 0.5 M Tris Base Buffer pH 10 and 8. Dissolve 6.06 g of Tris in to 100 ml of water. The pH adjust with 1 M hydrochloric acid or 1 M NaOH. Filter sterilize and store at 4 C. • 0.1 M Borate Buffer pH 11 and 12. Dissolve 0.62 g Boric acid, 0.44 g NaCl and Sodium tetraborate 0.95 g in 100 ml H2O. The pH adjust with 1 M hydrochloric acid or 1 M NaOH. Filter sterilize and store at 4 C. • 1 M KCl/NaOH Buffer pH 13. Dissolve 7.4 g KCl in 100 ml water. The pH adjust with 1 M NaOH. Filter sterilize and store at 4 C. • 1 M MgCl2, 23.8 g MgCl2 anhydrous in […] water. Filter sterilize and store at 4 C 3. Activity Assay: p-NPP Substrate
Reactions were carried out at 40° C. using 50 mM Tris buffer pH 7 with 50 mM MgCl2 and at 50° C. using 50 mM DEA buffer pH 10 with 50 mM MgCl2. Enzyme was thawed, aliquoted in 500 μL vials and freeze at −80° C. For 100 μL volume of reaction, components were mixed in 96-well microplate (Fisher 12565501) following the order in TABLE 1. Every reaction condition was done by triplicated at least.
After the adding enzyme, the absorption of product was followed at 405 nm over 5 min in a M5 plate reader with intervals of 20 s. Initial rate was determined for each curve and product formed calculated using the extinction coefficient of 18.5 mM^−1·cm^−1 and a calculated pathlength of 0.5 cm. Initial rates where fitted to Michalis Menten model built in the Kaleidagraph software.
pH effect on enzyme activity was tested at 40 and 50° C. in the corresponding buffer with 50 mM MgCl2 using p-NPP as substrate in the concentration range 0-5.0 mM. The reaction started with the addition of enzyme (2.5 μg/mL for pH 8 and 0.4 μg/mL for pH 9-13) and the absorption at 405 nm was followed for 5 min. Every reaction condition was done by triplicated at least.

`O=[N+]([O-])c1ccc(OP(=O)(O)O)cc1` [p-NPP, p-nitrophenylphosphate]: the Km was found to be 12200 µM (40° C., Borate pH 11); 498 µM (40° C., Borate pH 12); 2540 µM (40° C., DEA pH 10); 46 µM (40° C., Tris pH 8); 992 µM (40° C., Tris pH 9); 12200 µM (50° C., Borate pH 11). Moreover, the Km worked out at 1080 µM (50° C., Borate pH 12); 2540 µM (50° C., DEA pH 10); 498 µM (50° C., KCl/NaOH (pH printed 204; Table 2: 13.0)); 45 µM (50° C., Tris pH 8); 992 µM (50° C., Tris pH 9).
